Data: patent publication US11702422B2, “Imidazopyridazines as modulators of IL-17” (Janssen Pharmaceutica NV, priority 2020, dated 2023)

Each compound was assayed against IL-17A(FLAG-Tagged): IL-17RA(His-Tagged) (Homo sapiens, UniProt Q16552, K93Q) (assay: IL-17A(FLAG-Tagged): IL-17RA(His-Tagged) Binding Disruption Eu-HTRF Assay). Settings: IL-17A/IL-17RA binding disruption, simple average if tested more than once.
Text: IL-17A(FLAG-Tagged): IL-17RA(His-Tagged) Binding Disruption Eu-HTRF Assay
An antibody directed against the FLAG tag of IL-17A (SEQ ID NO:1) is labeled with the HTRF donor chromophore (Europium-cryptate). IL-17A is present as a dimer that is “locked into” this quaternary structure due to the formation of loop-spanning […] disulfide bridges. The construct of IL-17RA used in the assay excludes the […] portion of the receptor and is fused to a C-terminal 10×His tag (SEQ ID NO:2). An antibody directed against the His tag of the IL-17RA chimera is labeled with the HTRF acceptor chromophore (“D2”). The fluorescence-resonance energy transfer (FRET) depends on the vicinity of the donor chromophore to the acceptor, and interruption of the binding between the IL-17A and IL-17RA causes the reduction/loss of FRET. Therefore, this assay allows to evaluate the compound effect on the binding IL-17A and IL-17RA by monitoring the fluorescence intensity of donor vs acceptor. The assay is run as described below.
40 nl of 2-fold serial diluted compound solution for total 22 dilution points is added into each well of a 1536-well, white, low-volume, non-binding plate (Greiner #782904), then 2 μl of FLAG tagged IL-17A at 2× final concentration (2.5 nM) in solution of PBS+0.01% Triton-X100 is added to each well. The assay plate is briefly centrifuged then incubated for 1 h at rt. A mixed solution is prepared containing 2×5 nM 10HIS×IL-17RA, 2×2.5 nM Eu-anti-FLAG (CISBIO), 2×5 nM D2-anti-HIS (CISBIO) in PBS+0.01% Triton-X100+200 mM Potassium Fluoride (Sigma 60238) and 2 μl of mix is added to each well of the assay plate. The plate is briefly centrifuged then incubated for 2 h at rt. The HTRF intensities at the wavelength of donor (620 nm) and acceptor (665 nm) are measured using BMG Pherastar. The ratio between intensities at two wavelengths is calculated and plotted against the compound concentration and the data is fitted to a one-site competition model to yield IC50 of the compound.

Chain of UniProt Q16552 (Q16552 with tags, fused parts or gaps K93Q): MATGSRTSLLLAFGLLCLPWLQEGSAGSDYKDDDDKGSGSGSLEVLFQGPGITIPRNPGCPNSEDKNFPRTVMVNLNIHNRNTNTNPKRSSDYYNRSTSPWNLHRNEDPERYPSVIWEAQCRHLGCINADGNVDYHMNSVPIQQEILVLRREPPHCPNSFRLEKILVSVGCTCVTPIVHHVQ

Row | IC50 [nM] | Structure (SMILES)
1 | 430 | CC(C)C(NC(=O)CCC(F)(F)F)c1cnn2cc([C@@H](NC(=O)c3ccnn3C(C)C)C3CCC(F)(F)CC3)nc2c1 (single isomer, unassigned) [Example 154, N—((S)-(4,4-Difluorocyclohexyl)(7-((R*)-2-methyl-1-(4,4,4-trifluorobutanamido)propyl)imidazo[1,2-b]pyridazin-2-yl)methyl)-1-isopropyl-1H-pyrazole-5-carboxamide]
2 | 480 | COc1ccnc(C(=O)N[C@H](c2cn3ncc([C@H](NC(=O)CCC(F)(F)F)C4CC4)cc3n2)C2CCC(F)(F)CC2)c1 [Example 196, N—((S)-(7-((R)-Cyclopropyl(4,4,4-trifluorobutanamido)methyl)imidazo[1,2-b]pyridazin-2-yl)(4,4-difluorocyclohexyl)methyl)-4-methoxypicolinamide]
3 | 7600 | O=C(CCC(F)(F)F)NC(c1cnn2cc([C@@H](NC(=O)c3ccccc3)C3CCC(F)(F)CC3)nc2c1)C1CC1 (single isomer, unassigned) [Example 13, N—((S)-(7-((S*)-Cyclopropyl(4,4,4-trifluorobutanamido)methyl)imidazo[1,2-b]pyridazin-2-yl)(4,4-difluorocyclohexyl)methyl)benzamide]
4 | 19000 | Cc1nonc1C(=O)N[C@H](c1cn2ncc([C@H](NC(=O)[C@H]3CNC[C@@H]3C(F)(F)F)C3CC3)cc2n1)C1CCC(F)(F)CC1 (relative stereo) [Example 355, N—((S)-(7-((R)-Cyclopropyl((trans-3R*,4R*)-4-(trifluoromethyl)pyrrolidine-3-carboxamido)methyl)imidazo[1,2-b]pyridazin-2-yl)(4,4-difluorocyclohexyl)methyl)-4-methyl-1,2,5-oxadiazole-3-carboxamide]
5 | 2600 | Cc1nonc1C(=O)N[C@H](c1cn2ncc([C@H](NC(=O)CCCC#N)C3CC3)cc2n1)C1CCC(F)(F)CC1 [Example 351, N—((S)-(7-((R)-(4-Cyanobutanamido)(cyclopropyl)methyl)imidazo[1,2-b]pyridazin-2-yl)(4,4-difluorocyclohexyl)methyl)-4-methyl-1,2,5-oxadiazole-3-carboxamide]

Each compound was assayed on IL-17A-induced G-CSF production in human normal keratinocyte (NHK) (assay: NHK Assay: IL-17A-induced G-CSF production in human normal keratinocytes). Settings: Homo sapiens, Keratinocyte, 24 h, adult normal human keratinocytes, IL-17A 5 ng/mL, simple average if tested more than once.
Type: cell-based
Description: IL-17A acts directly on keratinocytes through binding to dimeric receptor IL-17RA/RC and drives the production of a number of inflammatory mediators known to be elevated in psoriasis lesional tissue. IL-17A small molecule inhibitors that block the IL-17A to interact with IL-17R would inhibit the IL-17A signaling in its targeted cells such as keratinocytes. The compound functional activity is evaluated for its impact on IL-17A-induced G-CSF production in human normal keratinocyte (NHK).
Adult normal human keratinocytes are cultured in keratinocyte growth medium (Lonza) in a flask till reaching ˜ 90% confluence, then cells are transferred to a 384-well plate at density of 3000-4000 cell/well. Recombinant human IL-17A (Gibco PHC9174) is pre-incubated with titrated compound or DMSO for 1 h at rt then added to the cell culture plate. The final concentration of IL-17A is 5 ng/mL and DMSO is 0.2%, in the culture containing 5% FBS. Cells are cultured/treated for 24 h at 37° C. Supernatants are collected and G-CSF production is measured through HTRF technology using Human G-CSF Kit (CisBio). G-CSF concentration was extrapolated from the standard curve and IC50 is determined using GraphPad Prism. Cell viability is also evaluated using CellTiter-Glo kit (Promega) and effect of compound on cell viability is compared to DMSO control.

Row | Structure (SMILES) | IC50 [nM]
6 | COc1ccnc(C(=O)N[C@H](c2cn3ncc([C@H](NC(=O)CCC(F)(F)F)C4CC4)cc3n2)C2CCC(F)(F)CC2)c1 [Example 196, N—((S)-(7-((R)-Cyclopropyl(4,4,4-trifluorobutanamido)methyl)imidazo[1,2-b]pyridazin-2-yl)(4,4-difluorocyclohexyl)methyl)-4-methoxypicolinamide] | 1700
7 | CC(C)(C)Oc1nonc1C(=O)N[C@H](c1cn2ncc([C@H](NC(=O)CC3CC(F)(F)C3)C3CC3)cc2n1)C1CCC(F)(F)CC1 [Example 392, 4-(tert-Butoxy)-N—((S)-(7-((R)-cyclopropyl(2-(3,3-difluorocyclobutyl)acetamido)methyl)imidazo[1,2-b]pyridazin-2-yl)(4,4-difluorocyclohexyl)methyl)-1,2,5-oxadiazole-3-carboxamide] | 37
8 | O=C(CCC(F)(F)F)N[C@@H](c1cnn2cc([C@@H](NC(=O)c3nonc3CN3CC(F)(F)C3)C3CCC(F)(F)CC3)nc2c1)C1CC1 [Example 387, N—((S)-(7-((R)-Cyclopropyl(4,4,4-trifluorobutanamido)methyl)imidazo[1,2-b]pyridazin-2-yl)(4,4-difluorocyclohexyl)methyl)-4-((3,3-difluoroazetidin-1-yl)methyl)-1,2,5-oxadiazole-3-carboxamide] | 72
9 | CC(C)c1ncsc1C(=O)N[C@H](c1cn2ncc([C@H](NC(=O)CCC(F)(F)F)C3CC3)cc2n1)C1CCC(F)(F)CC1 [Example 464, N—((S)-(7-((R)-Cyclopropyl(4,4,4-trifluorobutanamido)methyl)imidazo[1,2-b]pyridazin-2-yl)(4,4-difluorocyclohexyl)methyl)-4-isopropylthiazole-5-carboxamide] | 630
10 | CC(C)c1nnsc1C(=O)N[C@H](c1cn2ncc([C@H](NC(=O)CCC(F)(F)F)C3CC3)cc2n1)C1CCC(F)(F)CC1 [Example 481, N—[(S)-[7-[(R)-Cyclopropyl-(4,4,4-trifluorobutanamido)methyl]imidazo[1,2-b]pyridazin-2-yl]-(4,4-difluorocyclohexyl)methyl]-4-isopropyl-thiadiazole-5-carboxamide] | 470

Same assay, conditions: adult normal human keratinocytes, IL-17A 5 ng/mL, 24 h, simple average if tested more than once

Row | Structure (SMILES) | IC50 [nM]
11 | CC(C)C(NC(=O)CCC(F)(F)F)c1cnn2cc([C@@H](NC(=O)c3ccnn3C(C)C)C3CCC(F)(F)CC3)nc2c1 (single isomer, unassigned) [Example 154, N—((S)-(4,4-Difluorocyclohexyl)(7-((R*)-2-methyl-1-(4,4,4-trifluorobutanamido)propyl)imidazo[1,2-b]pyridazin-2-yl)methyl)-1-isopropyl-1H-pyrazole-5-carboxamide] | 640
12 | CC(C)c1oncc1C(=O)N[C@H](c1cn2ncc([C@H](NC(=O)CCC(F)(F)F)C3CC3)cc2n1)C1CCC(F)(F)CC1 [Example 482, N—[(S)-[7-[(R)-Cyclopropyl-(4,4,4-trifluorobutanamido)methyl]imidazo[1,2-b]pyridazin-2-yl]-(4,4-difluorocyclohexyl)methyl]-5-isopropyl-isoxazole-4-carboxamide] | 76
13 | O=C(CC1CC(F)(F)C1)NC(c1cnn2cc([C@@H](NC(=O)c3nonc3C3CC3)C3CCC(F)(F)CC3)nc2c1)C(F)F (single isomer, unassigned) [Example 518, 4-Cyclopropyl-N—((S)-(7-((R*)-1-(2-(3,3-difluorocyclobutyl)acetamido)-2,2-difluoroethyl)imidazo[1,2-b]pyridazin-2-yl)(4,4-difluorocyclohexyl)methyl)-1,2,5-oxadiazole-3-carboxamide] | 2900
14 | CC(C)n1nccc1C(=O)N[C@H](c1cn2ncc(C(CC3CCC3)NC(=O)CC3CC(F)(F)C3)cc2n1)C1CCC(F)(F)CC1 (single isomer, unassigned) [Example 441, N—((S)-(7-((S*)-2-Cyclobutyl-1-(2-(3,3-difluorocyclobutyl)acetamido)ethyl)imidazo[1,2-b]pyridazin-2-yl)(4,4-difluorocyclohexyl)methyl)-1-isopropyl-1H-pyrazole-5-carboxamide] | 1100
15 | CC(C)n1nccc1C(=O)N[C@H](c1cn2ncc(C(NC(=O)CC3CC(F)(F)C3)C(F)F)cc2n1)C1CCC(F)(F)CC1 (single isomer, unassigned) [Example 420, N—((S)-(7-((R*)-1-(2-(3,3-Difluorocyclobutyl)acetamido)-2,2-difluoroethyl)imidazo[1,2-b]pyridazin-2-yl)(4,4-difluorocyclohexyl)methyl)-1-isopropyl-1H-pyrazole-5-carboxamide] | 4100
16 | Cc1nonc1C(=O)N[C@H](c1cn2ncc(C(NC(=O)CCC(F)(F)F)C(F)F)cc2n1)C1CCC(F)(F)CC1 (single isomer, unassigned) [Example 515, N—((S)-(7-((S*)-2,2-Difluoro-1-(4,4,4-trifluorobutanamido)ethyl)imidazo[1,2-b]pyridazin-2-yl)(4,4-difluorocyclohexyl)methyl)-4-methyl-1,2,5-oxadiazole-3-carboxamide] | 140
17 | Cc1nonc1C(=O)N[C@H](c1cn2ncc(C(NC(=O)CC3CC(F)(F)C3)C(C)(C)O)cc2n1)C1CCC(F)(F)CC1 (single isomer, unassigned) [Example 443, N—((S)-(7-((S*)-1-(2-(3,3-Difluorocyclobutyl)acetamido)-2-hydroxy-2-methylpropyl)imidazo[1,2-b]pyridazin-2-yl)(4,4-difluorocyclohexyl)methyl)-4-methyl-1,2,5-oxadiazole-3-carboxamide] | 520
18 | CC(C)n1nccc1C(=O)N[C@H](c1cn2ncc(C(NC(=O)CC3CC(F)(F)C3)C(C)(C)O)cc2n1)C1CCC(F)(F)CC1 (single isomer, unassigned) [Example 442, N—((S)-(7-((S*)-1-(2-(3,3-Difluorocyclobutyl)acetamido)-2-hydroxy-2-methylpropyl)imidazo[1,2-b]pyridazin-2-yl)(4,4-difluorocyclohexyl)methyl)-1-isopropyl-1H-pyrazole-5-carboxamide] | 600
